This is an account of results in patent publication US5670526A, “1,3,4-oxadiazoles” (Otsuka Pharmaceutical Co., Ltd., priority 1995, dated 1997).

Assay [1] has as its system Concanavalin A (ConA)-induced liver injury. In words: Concanavalin A (ConA)-induced liver injury in mice, serum SGOT. The assay is classed as in vivo, C57BL/6 mice. Conditions: Mus musculus, ip, ConA 15 mg/kg i.v., 17 hours, read-out: SGOT (% decrease); for inhibition in vivo at 50 mg/kg: 50 mg/kg i.p. On the procedure:
The following protocol was used for the Concanavalin A (ConA)-induced liver injury in mice. C57BL/6 mice were used. A solution of ConA (Sigma)in PBS was prepared at a concentration of 1.5 mg/ml. The mice were administered, i.p., with […] of a 10% DMSO solution containing varying amounts (adjusted to give 25 mg/kg to 50 mg/kg of compound) of the representative compounds of interest. Fifteen minutes later, the mice were treated via the tail vein with 15 mg/kg of ConA in PBS along with […] of 10% DMSO solution.
The mice were sacrificed after 17 hours and the blood collected into small conical tubes. The tubes were centrifuged and the serum collected and assayed for serum glutamic oxaloacetic transaminase (SGOT) (Sigma GOT kit). The high level enzyme standard (Sigma) was used to make the standard curve, as 100(undiluted), 50, 25, 12.5 and 0 S-F units/mi. Samples were diluted 1:5, 1:25 and 1:125 by adding 25 μl of serum to 100 μl of H2 O and serially diluting 25 μl into 100 μl two more times. Then 100 μl of the Sigma substrate were added to each tube along with 20 μl of each diluted sample and enzyme standard. The tube was incubated in a 37° C. bath with gentle shaking for 1 hour. To that was added […] of colorizing reagent and the tube was left to stand for 30 minutes. Then 500 μl of 0.8N NaOH solution were added, the tubes were capped and inverted to mix thoroughly. A 150 μl aliquot of each sample and 150 μl of the standard were added to wells of a 96-well plate and color formation was monitored at 490 nm. The amounts of SGOT were calculated using a standard curve, converted to Sigma-Frankel units/ml.

The subject of the next assay is Neutrophil migration. The assay can be described thus: Immune complex (BSA/anti-BSA) induced neutrophil migration into mouse skin, myeloperoxidase (MPO) assay. The assay is classed as in vivo, C57BL/6 mouse. Conditions: for inhibition in vivo at 12.5 mg/site: Mus musculus, Neutrophil, 12.5 mg of drug/site, i.d., 4 hours. On the procedure:
Neutrophil migration and infiltration into tissue spaces and the effect thereon of the compounds of the instant compounds can be tested. For example, immune complexes can be developed at a subcutaneous or intradermal site to draw neutrophils and the effect of the instant compounds on neutrophil migration can be assessed. A protocol is as follows. Mice are injected IV with bovine serum albumin (BSA). Then the mice are injected intradermally with antibody to BSA. For experimental animals, the test substance is administered concurrently intradermally or subcutaneously at the site of antibody deposition. After about four hours, the animal is sacrificed, the skin at the injection site is removed and then treated appropriately, such as assaying for myeloperoxidase, to determine the extent of neutrophil migration to the injection site.
An i.v. injection of 100 μl of BSA at 10 mg/ml in saline was followed by a 25 μl injection of anti-BSA i.d. on the back side of a pre-shaven C57BL/6 mouse. At time 0, along with the BSA and anti-BSA, the test compound or vehicle was administered i.d. at the site of the antibody injection in a volume of 25 μl (for example, 0.5 mg/μl solution). Four hours post injection, the skin was removed and a myeloperoxidase (MPO) assay performed (Mulligan et al., J. Imm. 151(10): 5666-5674, 1993).
Briefly, the skin sample was placed in a 17×100 mm test tube containing 2 ml of ice cold buffer (PBS, pH 7.4). The sample was ground for 30 seconds and placed on ice. The sample was vortexed for 10 seconds and then sonicated for three minutes in iced water. The sample was frozen in dry ice for 30 minutes. The sample then was thawed rapidly in a water bath for 10 minutes. An aliquot of 1.5 ml was removed and placed in a microfuge tube. The sample was spun at high speed in a cold room for 15 minutes. The sample then was titrated across the wells in a microtiter plate with the first well containing a 1:3 dilution of sample, for example, 50 μl of sample and 150 μl of buffer. Substrate and hydrogen peroxide were added to each well. Following a suitable incubation period, sodium azide was added to the wells and the absorbance monitored in a spectrophotometer at 460 nm. […]

Another assay has as its system ELAM. The assay can be described thus: ELISA for cell surface molecules: inhibition of ELAM expression on IL-1β stimulated HUVEC's. The assay is classed as cell-based. Conditions: Homo sapiens; for inhibition at 3 µg/mL: @ 3 μg/ml; for inhibition at 1 µg/mL: @ 1 μg/mL. How it is done: (§1) The following were used in an ELISA for cell surface molecules: Costar 96-well TC plates, 2% gelatin, 1% BSA-Dulbecco's PBS w/CaMg^++, IL-1β, primary antibody e.g., 7A9 for ELAM (EP 505749) secondary biotinylated goat anti-mouse IgG/IgM, streptavidin-peroxidase, OPD substrate tablets and 30% hydrogen peroxide.
(§2) To begin, 96-well plates were coated with 2% gelatin (1 hour). The excess gelatin was aspirated from the wells. HUVEC's were seeded at 20,000 cells/well in a 200 μl volume.
(§3) Prior to assay, the test compounds were dissolved in DMSO at a stock concentration of 3 mg/ml. The stock solutions were set at room temperature and observed to see if dissolution was complete. When monolayers reached confluence (24-28 hours after seeding) the test compounds were added to the wells at final concentrations of 10 μg/ml, 3 μg/ml and 1 μg/ml. The plates were incubated for 1 hour at 37° C. Then, IL-1β at a final concentration of 1 μg/ml was added and the plates incubated for 4 hours at 37° C. The supernatant was removed from the plates by flicking into a sink. The wells were washed 3× with 1% BSA-Dulbecco's PBS.
(§4) Primary antibody (7A9 for ELAM or a suitable antibody for VCAM or ICAM) at a concentration of 2.5 μg/ml in a 50 μl volume was added to each well. The plates were incubated at 4° C. for 45 minutes to 1 hour. The wells were washed 3× with 1% BSA Dulbecco's PBS. Secondary antibody (biotinylated goat anti-mouse IgG-IgM, commercially available) at 50 μl/well at a final dilution of 1:1,000 was added to the well and the plates were incubated for 45 minutes to 1 hour at 4° C. The wells were washed 3× with 1% BSA-Dulbecco's PBS.
(§5) Streptavidin-peroxidase at 50 μl/well with a final dilution of 1:3,000 was added to each well and the plates were incubated at 4° C. for 30 minutes. Again the plates were washed 3× with 1% BSA-Dulbecco's PBS.
(§6) Substrate solution (OPD tablets, citric acid buffer and hydrogen peroxide solution) was prepared and added at 100 μl/well. The plates were incubated 15 minutes at room temperature on a plate shaker and the reaction was stopped with 12.5% sulfuric acid. Plates were read for absorbance values at 492 nm.
(§7) The degree of inhibition in expression of ELAM or VCAM by a compound of the instant invention is manifest as a decrease in specific primary antibody binding. In the following table the IC50 values are provided using a representative sampling of compounds of the instant invention.
(In general: In an ELISA, binding on a coated surface is turned into a signal by an enzyme label.)

The next assay concerns VCAM. In words: ELISA for cell surface molecules: inhibition of VCAM expression on IL-1β stimulated HUVEC's. The format is cell-based. Conditions: Homo sapiens; for inhibition at 3 µg/mL: @ 3 μg/ml; for inhibition at 1 µg/mL: @ 1 μg/mL. On the procedure:
as §1, §2, §3, §4, §5, §6, §7

In the case of `COc1c(C)cnc(CSc2nnc(C)o2)c1C` [Compound 16, 2-(3,5-dimethyl-4-methoxy-2-pyridyl)methylthio-5-methyl-1,3,4-oxadiazole], the inhibition in vivo at 50 mg/kg in assay [1] came out at 85%. The same measure, in the same setting: the result for `COc1ccnc2c1CCCCC2Sc1nnc(C)o1` (stereo not drawn) [Compound 19] reads 87%; that for `COc1c(C)cnc(CSc2nnc(-c3cccs3)o2)c1C` [Compound 35], 45%.

For `c1ccc(CSc2nnc(-c3ccccn3)o2)cc1` [Compound 44], the inhibition in vivo at 25 mg/kg in assay [1] (25 mg/kg i.p.) was 86%. Take `c1ccc(CSc2nnc(-c3cccnc3)o2)cc1` [Compound 48]: in assay [1], the inhibition in vivo at 50 mg/kg is 51%. Same read-out and setting: the result for `COc1c(C)cnc(CSc2nnc(-c3ccccc3O)o2)c1C` [Compound 60] reads 60%. Consider `COc1c(C)cnc(CSc2nnc(-c3nc(-c4ccccc4)cs3)o2)c1C` [Compound 67], for which the inhibition in vivo at 50 mg/kg in assay [1] was 55%.

Take `c1ccc(CSc2nnc(-c3nc(-c4ccccc4)cs3)o2)cc1` [Compound 68]: the “decrease in MPO activity” value in the assay on Neutrophil migration (test compound i.d. at site of antibody injection, 4 hours post injection) is listed as 55-60%.

As for `COc1ccnc2c1CCCCC2Sc1nnc(-c2nc(-c3ccccc3)cs2)o1` (stereo not drawn) [Compound 69], in assay [1], the inhibition in vivo at 50 mg/kg came out at 30%. For the molecule `COc1c(C)cnc(C[S+]([O-])c2nnc(C)o2)c1C` (stereo not drawn) [Compound 70, 2-(3,5-dimethyl-4-methoxy-2-pyridyl)methylsulfinyl-5-methyl-1,3,4-oxadiazole], the inhibition at 3 µg/mL with ELAM came out at 55%; in the assay with VCAM, 65%. For the same molecule, the inhibition in vivo at 50 mg/kg in assay [1] is 82%. In the assay on Neutrophil migration, this molecule yielded an inhibition in vivo at 12.5 mg/site of 55%. For `Cc1nnc([S+]([O-])Cc2ccccn2)o1` (stereo not drawn) [Compound 71], the figures for the inhibition at 3 µg/mL in the assay on ELAM and in the assay with VCAM were 30% and 40%, respectively. Further, the inhibition in vivo at 12.5 mg/site in the assay on Neutrophil migration was 40%. `Cc1nnc([S+]([O-])Cc2ccccc2)o1` (stereo not drawn) [Compound 72]: the figures for the inhibition at 3 µg/mL in the assay with ELAM and in the assay on VCAM were 15% and 25%, respectively. For `COc1ccnc2c1CCCCC2[S+]([O-])c1nnc(C)o1` (stereo not drawn) [Compound 73], the inhibition at 10 µg/mL in the assay on ELAM (@ 10 μg/mL) and in the assay on VCAM (@ 10 μg/mL) was 20% each time.

Consider `Cc1nnc([S+]([O-])Cc2nccn2Cc2ccccc2)o1` (stereo not drawn) [Compound 75], for which the inhibition at 3 µg/mL was 55% in the assay with ELAM and 100% in the assay on VCAM. The same molecule displayed an inhibition in vivo at 12.5 mg/site in the assay with Neutrophil migration of 20%. `Cc1nnc([S+]([O-])Cc2ncn(Cc3ccccc3)c2C)o1` (stereo not drawn) [Compound 76]: in the assay on Neutrophil migration, the inhibition in vivo at 12.5 mg/site turned out to be 20%.

For the molecule `CCc1nnc([S+]([O-])Cc2ncc(C)c(OC)c2C)o1` (stereo not drawn) [Compound 79], the figures for the inhibition at 3 µg/mL in the assay on ELAM and in the assay on VCAM were 35% and 50%, respectively. For `CCCc1nnc([S+]([O-])Cc2ncc(C)c(OC)c2C)o1` (stereo not drawn) [Compound 80] the same measures were 45% and 70%. Take `CCCCc1nnc([S+]([O-])Cc2ncc(C)c(OC)c2C)o1` (stereo not drawn) [Compound 81]: the inhibition at 3 µg/mL in the assay with VCAM was determined as 20%. For `COc1c(C)cnc(C[S+]([O-])c2nnc(-c3ccccc3)o2)c1C` (stereo not drawn) [Compound 85], the inhibition at 3 µg/mL in the assay on VCAM came to 100%. In the assay with Neutrophil migration, this molecule came in with an inhibition in vivo at 12.5 mg/site of 25%. `COc1c(C)cnc(C[S+]([O-])c2nnc(-c3cccs3)o2)c1C` (stereo not drawn) [Compound 89]: the inhibition at 1 µg/mL in the assay with ELAM worked out at 25%; in the assay on VCAM, 60%. Besides, the inhibition in vivo at 50 mg/kg in assay [1] was 95%. With `[O-][S+](Cc1ccccc1)c1nnc(-c2cccs2)o1` (stereo not drawn) [Compound 91], the inhibition at 1 µg/mL in the assay on ELAM and in the assay with VCAM was 20% each time. The inhibition in vivo at 12.5 mg/site with Neutrophil migration is 40%. `[O-][S+](Cc1ccccn1)c1nnc(-c2ccncc2)o1` (stereo not drawn) [Compound 92]: in the assay on VCAM, the inhibition at 3 µg/mL stood at 100%. In the assay on Neutrophil migration, this molecule displayed an inhibition in vivo at 12.5 mg/site of 60%.

In the case of `[O-][S+](Cc1ccccn1)c1nnc(-c2ccccn2)o1` (stereo not drawn) [Compound 96], the inhibition at 1 µg/mL in the assay with ELAM and in the assay on VCAM was 50% throughout. In the assay with Neutrophil migration, this molecule displayed an inhibition in vivo at 12.5 mg/site of 70%. Consider `[O-][S+](Cc1ccccn1)c1nnc(-c2cccnc2)o1` (stereo not drawn) [Compound 100], for which, in the assay on VCAM, the inhibition at 3 µg/mL is 80%. In addition, the inhibition in vivo at 12.5 mg/site with Neutrophil migration was found to be 60%. The like results for `[O-][S+](Cc1ccccn1)c1nnc(C23CC4CC(CC(C4)C2)C3)o1` (stereo not drawn) [Compound 102] were, in that order, 30% and 25%. Turning to `[O-][S+](Cc1ccccc1)c1nnc(-c2cc(-c3ccccc3)nc3ccccc23)o1` (stereo not drawn) [Compound 106], the inhibition at 3 µg/mL in the assay with VCAM came to 10%. Regarding `COc1c(C)cnc(C[S+]([O-])c2nnc(-c3cccn3C)o2)c1C` (stereo not drawn) [Compound 112], the results for the inhibition at 1 µg/mL in the assay on ELAM and in the assay with VCAM were 25% and 65%, respectively.

For `[O-][S+](Cc1ccccc1)c1nnc(-c2ccccc2O)o1` (stereo not drawn) [Compound 114], the inhibition at 1 µg/mL in the assay with ELAM came out at 20%; with VCAM, 25%.

Take `COc1c(C)cnc(C[S+]([O-])c2nnc(-c3cccc(C(F)(F)F)c3)o2)c1C` (stereo not drawn) [Compound 116]: the inhibition at 3 µg/mL in the assay with VCAM was determined as 25%.

Regarding `COc1c(C)cnc(C[S+]([O-])c2nnc(-c3ccc(C(F)(F)F)cc3)o2)c1C` (stereo not drawn) [Compound 117], the inhibition at 3 µg/mL in the assay with VCAM is 15%.

As for `[O-][S+](Cc1ccccc1)c1nnc(-c2nc(-c3ccccc3)cs2)o1` (stereo not drawn) [Compound 121], the inhibition at 3 µg/mL in the assay on VCAM was 50%.

Usually inhibition stands for the share of the control response that was lost under treatment.
